In US20250230193A1, “CYCLIC COMPOUND HAVING SELECTIVE KRAS INHIBITORY EFFECT ON HRAS AND NRAS” (CHUGAI SEIYAKU KABUSHIKI KAISHA, priority 2022, published 2025):

Experiments:
[1] = molecular target: GDP-bound HRAS wild-type protein (Homo sapiens, UniProt P01112); test: Binding to HRAS by surface plasmon resonance (SPR), Single Cycle Kinetics; details: SPR, GDP-bound HRAS wild-type vs GDP-bound KRAS wild-type
[2] = molecular target: GDP-bound NRAS wild-type protein (Homo sapiens, UniProt P01111); test: Binding to NRAS by surface plasmon resonance (SPR), Single Cycle Kinetics; details: SPR, GDP-bound NRAS wild-type vs GDP-bound KRAS wild-type
Chain of GDP-bound NRAS wild-type protein (P01111 whole entry): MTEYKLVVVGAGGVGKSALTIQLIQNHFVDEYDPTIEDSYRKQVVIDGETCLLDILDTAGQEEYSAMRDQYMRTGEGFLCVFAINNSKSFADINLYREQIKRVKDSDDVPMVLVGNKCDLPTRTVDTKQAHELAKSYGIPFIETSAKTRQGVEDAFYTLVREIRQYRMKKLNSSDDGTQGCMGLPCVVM

Chain of GDP-bound HRAS wild-type protein (P01112 whole entry): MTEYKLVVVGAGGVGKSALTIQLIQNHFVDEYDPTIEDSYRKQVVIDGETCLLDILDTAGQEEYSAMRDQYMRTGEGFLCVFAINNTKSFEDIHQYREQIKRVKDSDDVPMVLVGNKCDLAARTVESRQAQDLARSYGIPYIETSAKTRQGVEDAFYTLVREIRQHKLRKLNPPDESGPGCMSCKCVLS

CCOC[C@H]1C(=O)N[C@@H]([C@@H](C)CC)C(=O)N(C)CC(=O)N(C)[C@H]2C/C=C\CCN(C2=O)[C@@H](CC2CCC(F)(F)CC2)C(=O)N(C)CC(=O)N[C@@H](CCc2ccc(C(F)(F)F)c(Cl)c2)C(=O)N2C[C@H](OCC)C[C@H]2C(=O)NC2(CC(C)(C)C2)C(=O)N(C)[C@@H](C(CC)CC)C(=O)N(C)[C@H](C(=O)N(C)C)CC(=O)N1C [PP2460]
HRAS/KRAS (ratio of KD value with respect to HRAS to KD value with respect to KRAS) [1]: A (a compound having 10 or more and less than 20 is denoted as A) | NRAS/KRAS (ratio of KD value with respect to NRAS to KD value with respect to KRAS) [2]: A (a compound having 10 or more and less than 20 is denoted as A)

CCCOC[C@H]1C(=O)N[C@@H]([C@@H](C)CC)C(=O)N(C)CC(=O)N(C)[C@H]2C/C=C\CCN(C2=O)[C@@H](Cc2ccc(C)cc2)C(=O)N(C)CC(=O)N[C@@H](CCc2ccc(C(F)(F)F)c(OC)c2)C(=O)N2C[C@@H](C)C[C@H]2C(=O)NC2(CC(C)(C)C2)C(=O)N(C)[C@@H](C2CCCC2)C(=O)N(C)[C@H](C(=O)N(C)CC)CC(=O)N1C [PP2461]
HRAS/KRAS (ratio of KD value with respect to HRAS to KD value with respect to KRAS) [1]: A (a compound having 10 or more and less than 20 is denoted as A) | NRAS/KRAS (ratio of KD value with respect to NRAS to KD value with respect to KRAS) [2]: A (a compound having 10 or more and less than 20 is denoted as A)

CCOC[C@H]1C(=O)N[C@@H]([C@@H](C)CC)C(=O)N(C)CC(=O)N(C)[C@H]2C/C=C\CCN(C2=O)[C@@H](CC2CCC(F)(F)CC2)C(=O)N(C)CC(=O)N[C@@H](CCc2cc(F)c(C(F)(F)F)c(F)c2)C(=O)N2C[C@@H](C)C[C@H]2C(=O)NC2(CC(C)(C)C2)C(=O)N(C)[C@@H](C(CC)CC)C(=O)N(C)[C@H](C(=O)N(C)C)CC(=O)N1C [PP2462]
HRAS/KRAS (ratio of KD value with respect to HRAS to KD value with respect to KRAS) [1]: A (a compound having 10 or more and less than 20 is denoted as A) | NRAS/KRAS (ratio of KD value with respect to NRAS to KD value with respect to KRAS) [2]: A (a compound having 10 or more and less than 20 is denoted as A)

CCCOC[C@H]1C(=O)N[C@@H]([C@@H](C)CC)C(=O)N(C)CC(=O)N(C)[C@H]2C/C=C\CCN(C2=O)[C@@H](Cc2ccc(C)cc2)C(=O)N(C)CC(=O)N[C@@H](CCc2ccc(C(F)(F)F)c(OC)c2)C(=O)N2C[C@H](OCC)C[C@H]2C(=O)NC2(CC(C)(C)C2)C(=O)N(C)[C@@H](C2CCCC2)C(=O)N(C)[C@H](C(=O)N(C)CC)CC(=O)N1C [PP2463]
HRAS/KRAS (ratio of KD value with respect to HRAS to KD value with respect to KRAS) [1]: A (a compound having 10 or more and less than 20 is denoted as A) | NRAS/KRAS (ratio of KD value with respect to NRAS to KD value with respect to KRAS) [2]: A (a compound having 10 or more and less than 20 is denoted as A)

CCCOC[C@H]1C(=O)N[C@@H]([C@@H](C)CC)C(=O)N(C)CC(=O)N(C)[C@H]2C/C=C\CCN(C2=O)[C@@H](CC2CCC(F)(F)CC2)C(=O)N(C)CC(=O)N[C@@H](CCc2ccc(C(F)(F)F)c(OC)c2)C(=O)N2C[C@H](OCC)C[C@H]2C(=O)NC2(CC(C)(C)C2)C(=O)N(C)[C@@H](C(CC)CC)C(=O)N(C)[C@H](C(=O)N(C)C)CC(=O)N1C [PP2464]
HRAS/KRAS (ratio of KD value with respect to HRAS to KD value with respect to KRAS) [1]: A (a compound having 10 or more and less than 20 is denoted as A) | NRAS/KRAS (ratio of KD value with respect to NRAS to KD value with respect to KRAS) [2]: A (a compound having 10 or more and less than 20 is denoted as A)

CCOC[C@H]1C(=O)N[C@@H]([C@@H](C)CC)C(=O)N(C)CC(=O)N(C)[C@H]2C/C=C\CCN(C2=O)[C@@H](Cc2ccc(C)cc2)C(=O)N(C)CC(=O)N[C@@H](CCc2ccc(C(F)(F)F)c(Cl)c2)C(=O)N2C[C@@H](C)C[C@H]2C(=O)NC2(CC(C)(C)C2)C(=O)N(C)[C@@H](C2CCCC2)C(=O)N(C)[C@H](C(=O)N(CC)CC)CC(=O)N1C [PP2465]
HRAS/KRAS (ratio of KD value with respect to HRAS to KD value with respect to KRAS) [1]: A (a compound having 10 or more and less than 20 is denoted as A) | NRAS/KRAS (ratio of KD value with respect to NRAS to KD value with respect to KRAS) [2]: AA (a compound having 20 or more is denoted as AA)
